Key:
[1] = The compound was evaluated for inhibition of topoisomerase I mediated DNA relaxation of supercoiled DNA; type: functional
DC3F [2] = assay: The compound was tested in vitro for growth inhibitory activity against DC-3F (hamster lung) cells; Inactive; type: functional, cell-based, Cricetulus griseus
833K = assay: Tested in vitro for growth inhibitory activity against 833K (human teratorcarcinoma) cells; type: functional, cell-based
HL-60 = assay: Tested in vitro for growth inhibitory activity against HL60 (human promyelocytic leukemic) cells; type: functional, cell-based
[3] = The compound was evaluated for enhancement of topoisomerase I mediated DNA cleavage of supercoiled DNA; 0.1-1; type: functional
DC3F [4] = assay: Tested in vitro for growth inhibitory activity against DC-3F (hamster lung) cells; type: functional, cell-based; details: Cricetulus griseus
[5] = The compound was evaluated for inhibition of topoisomerase I mediated DNA relaxation of supercoiled DNA; 0.1-1; type: functional
[6] = The compound was evaluated for inhibition of topoisomerase I mediated DNA relaxation of supercoiled DNA; 1-2; type: functional
[7] = The compound was evaluated for enhancement of topoisomerase I mediated DNA cleavage of supercoiled DNA; 1-2; type: functional
[8] = The compound was evaluated for inhibition of topoisomerase I mediated DNA relaxation of supercoiled DNA; 5-20; type: functional
[9] = The compound was evaluated for enhancement of topoisomerase I mediated DNA cleavage of supercoiled DNA; 2-5; type: functional

SMILES	Inhibition [1] [µM]	IC50 (DC3F [2])	IC50 (833K) [nM]	IC50 (HL-60) [nM]	Enhancement [3] [µM]	IC50 (DC3F [4]) [nM]	Inhibition [5] [µM]	Inhibition [6] [µM]	Enhancement [7] [µM]	Inhibition [8] [µM]	Enhancement [9] [µM]
CC[C@@]1(O)C(=O)OCc2c1cc1n(c2=O)Cc2c-1nc1ccc(CCc3ccc4nc5c(c([Si](C)(C)C)c4c3)Cn3c-5cc4c(c3=O)COC(=O)[C@]4(O)CC)cc1c2[Si](C)(C)C	> 20	Not Active	84	53	–	–	–	–	–	–	–
CC[C@@]1(O)C(=O)OCc2c1cc1n(c2=O)Cc2c-1nc1ccccc1c2[Si](C)(C)C(C)(C)C	–	–	1.2	0.12	0.1	2.9	1	–	–	–	–
CC[C@@]1(O)C(=O)OCc2c1cc1n(c2=O)Cc2c-1nc1cc(F)ccc1c2[Si](C)(C)C	< 0.1	–	0.92	0.75	0.1	2	–	–	–	–	–
CC[C@@]1(O)C(=O)OCc2c1cc1n(c2=O)Cc2c-1nc1cc(N)ccc1c2[Si](C)(C)C	–	–	7.4	2.6	–	6.4	–	–	–	–	–
CC[C@@]1(O)C(=O)OCc2c1cc1n(c2=O)Cc2cc3ccccc3nc2-1 [CAMPTOTHECIN]	–	–	10	5	–	6	–	1	1	–	–
CC[C@@]1(O)C(=O)OCc2c1cc1n(c2=O)Cc2c-1nc1ccc(N3CCCC3N3CCCC3OC(N)=O)cc1c2[Si](C)(C)C (stereo not given in full)	–	–	214	66	–	256	–	–	–	–	–
CC[C@@]1(O)C(=O)OCc2c1cc1n(c2=O)Cc2c-1nc1cccc(F)c1c2[Si](C)(C)C	–	–	2.9	3	0.1	8.2	0.1	–	–	–	–
CC[C@@]1(O)C(=O)OCc2c1cc1n(c2=O)Cc2c-1nc1ccc(O)cc1c2[Si](C)(C)C	< 0.1	–	7	2.6	0.1	6.9	–	–	–	–	–
CC[C@@]1(O)C(=O)OCc2c1cc1n(c2=O)Cc2c-1nc1ccccc1c2[Si](c1ccccc1)(c1ccccc1)C(C)(C)C	–	–	243	339	–	663	–	–	–	5	2
CC[C@@]1(O)C(=O)OCc2c1cc1n(c2=O)Cc2c-1nc1ccc(N)cc1c2[Si](C)(C)C	–	–	5.7	0.52	–	0.72	–	–	–	–	–
CCc1c2c(nc3ccc(N4CCCC4N4CCCC4OC(N)=O)cc13)-c1cc3c(c(=O)n1C2)COC(=O)[C@]3(O)CC (stereo not given in full)	–	–	487	270	–	372	–	–	–	–	–
CC[C@@]1(O)C(=O)OCc2c1cc1n(c2=O)Cc2c-1nc1c(F)c(F)ccc1c2[Si](C)(C)C	–	–	2.1	1.01	–	2.5	–	1	1	–	–
CC[C@@]1(O)C(=O)OCc2c1cc1n(c2=O)Cc2c-1nc1ccc(OC(C)=O)cc1c2[Si](C)(C)C	< 0.1	–	–	2.7	0.1	6.7	–	–	–	–	–
CCC(=O)OCc1c([C@@](O)(CC)C(=O)NCCN(C)C)cc2n(c1=O)Cc1c-2nc2ccc(O)cc2c1[Si](C)(C)C	–	–	15	9.7	–	14.2	–	–	1	5	–
CC[C@@]1(O)C(=O)OCc2c1cc1n(c2=O)Cc2c-1nc1ccccc1c2[Si](C)(C)C	–	–	5.6	3.8	0.1	4.2	1	–	–	–	–
CC[C@@]1(O)C(=O)OCc2c1cc1n(c2=O)Cc2c-1nc1cc(F)c(N)cc1c2[Si](C)(C)C	–	–	0.14	0.07	0.1	0.29	0.1	–	–	–	–

Reference: ChEMBL document CHEMBL1159184, “7-Silylcamptothecins (silatecans): A new family of camptothecin antitumor agents” (Bioorg Med Chem Lett, 1997)
